In patent US8957228B2, “Macrolide compound having anticancer effect” (Tohoku University, priority 2010, dated 2015):

Legend:
[1] = tested on: A549, H460 and A172 cell lines; test: Antiproliferative activity test (Alamar Blue, 72 hours), statements across cell lines; format: cell-based, human; conditions: result in words; for induction of cell death: no data are shown
Description: (§1) Antiproliferative activities of exiguolide and its analogs shown in Examples were examined using A549 and H460 cell lines derived from lung cancer and an A172 cell line derived from human glioblastoma cells. Each cell line was maintained in an RPMI 1640 medium supplemented with 10% fetal bovine serum (in the cases of the H460 cell line and the A172 cell line) or in a DMEM medium supplemented with 10% fetal bovine serum (in the case of the A549 cell line). Cells in the proliferative phase were seeded in a 96-well plate in triplicate and were cultured for 72 hours in the presence of the compound at various concentrations. At the completion of the culture period, an Alamar Blue solution (Invitrogen Corporation) was added to each culture in an amount of 1/10 of that of the medium, followed by leaving to stand for 3 hours. The fluorescence intensity was measured with Fluoroskan Ascent (Thermo Fisher Scientific K.K.). […] The fluorescence intensities of experimental groups were determined as relative intensities to that of the control group and were plotted. The concentration of a compound for achieving the 50% growth inhibition (IC50) of each cancer cell line was calculated by a non-linear regression model of standard slope using the GraphPad Prism software.

SK-OV-3 cell line = conditions: National Cancer Institute database; cited from earlier work
NCI-H460 cell line = conditions: National Cancer Institute database; cited from earlier work
A549 cell line = conditions: National Cancer Institute database; cited from earlier work
[2] = tested on: A549 cell line derived from lung cancer; test: Antiproliferative activity test (Alamar Blue, 72 hours); format: cell-based, human; conditions: read-out: IC50 (50% growth inhibition)
Description: as §1

[3] = tested on: H460 cell line derived from lung cancer; test: as above; format: cell-based, human; conditions: read-out: IC50 (50% growth inhibition)
Description: as §1

H460 cell line = conditions: H460 exposed to 1 μM
Method: The cell-cycle arrest activity of exiguolide was investigated. The H460 cell line was exposed to 1 μM of exiguolide, and the ratio of cells at each cell cycle phase was measured with a flow cytometer. The DNA staining reagent used was propidium iodide. The A549 cell line was exposed to exiguolide (0.01 to 5 μM) for 72 hours, and then the activity of a cell cycle regulator, Rb, was measured by Wester blotting.

[4] = tested on: tumors induced by human lung cancer cell line A549; test: In vivo antitumor activity test, subcutaneous tumor in immunodeficient mice; set-up: species or system mice (BALB/cAJcl-nu/nu); conditions: printed 'in the H460 cell line', 0.2 mg/kg intraperitoneally once a day
Method: (§2) Immunodeficient mice (BALB/cAJcl-nu/nu) were subcutaneously inoculated with human lung cancer cells (H460, A549, etc.). When the subcutaneous tumor volume reached approximately 200 mm^3, the mice were divided into an exiguolide administration group (n=2) and a control group (n=4) at random. The administration group was intraperitoneally administered with 0.2 mg/kg of exiguolide, and the control group with PBS (200 μL) and DMSO (5 to 10 μL), every day (once a day). […] The subcutaneous tumors were recognized from the body surface, and the change in tumor diameter was measured with a vernier caliper. […] After completion of the observation, the mice were euthanized with halothane. The tumors were extracted and were subjected to observation of the size, weight, and pathological findings.
(§3) The results are shown in FIG. 8 (H460) and FIG. 9 (A549). In each graph, the vertical axis (relative volume) represents the relative values of the estimated tumor volume of each group to that on the day 0, where the estimated tumor volume is expressed using a major axis “a” and a minor axis “b” by (a×b^2)/2.

[5] = tested on: tumors induced by human lung cancer cell line H460; test: as above; set-up: species or system mice (BALB/cAJcl-nu/nu); conditions: 0.2 mg/kg intraperitoneally once a day, 15 days
Method: as §2, §3

[6] = tested on: Rb phosphorylation in A549 cell line; test: Activity of cell cycle regulator Rb by Western blotting; format: cell-based, human; conditions: A549 exposed to 0.01 to 5 μM for 72 hours
[7] = tested on: Hemicentrotus pulcherrimus; conditions: Non Patent Literature 1; cited from earlier work
[8] = tested on: MKN74 (human gastric carcinoma); test: Drug sensitivity test, panel of human cultured cancer cell lines (sulforhodamine B colorimetry); format: cell-based
Method: (§4) The anticancer activity of exiguolide was examined by an in vitro drug sensitivity test using a panel of 39 human cultured cancer cell lines, by Professor Yamori, Molecular Pharmacology, Cancer Chemotherapy Center of Japanese Foundation for Cancer Research upon request.
(§5) The test was performed by seeding seven lung cancer cell lines, six gastric cancer cell lines, five colon cancer cell lines, five ovarian cancer cell lines, six brain cancer cell lines, five breast cancer cell lines, two kidney cancer cell lines, two prostatic cancer cell lines, and one melanoma cell line, 39 cell lines in total, in a 96-well plate, adding a sample solution containing a predetermined concentration of exiguolide to each well on the following day, culturing the cell lines for two days, and measuring the cell growth by colorimetry with sulforhodamine B. The measurement results were input into a computer, and the sensitivity patterns (growth rate and finger print, described below) of each cell line on exiguolide were analyzed using three parameters, GI50, TGI, and LC50, as indices. The data were also subjected to analysis comparing with sensitivities on known compounds showing cell growth-inhibiting activities.
(§6) The growth rate percentages were plotted with respect to drug concentrations (logarithm) for each cell line, and the growth rates (%) were summarized on each organ cancer (FIG. 3: dose-response curves). In each curve, the concentrations at the points at which the growth rates 50%, 0%, and -50% intersect horizontal lines correspond to log GI50, log TGI, and log LC50, respectively.
(§7) The average of log GI50 values of all cell lines tested was determined. The difference between this average and log GI50 value of each cell line (e.g., how much the GI50 of each cell line is high or low relative to the average is shown as logarithmic value) was determined, and the results were drawn as a bar graph extending left or right from the center showing the average log GI50 value (scale: 0) to form finger prints (FIG. 4). A cell line having higher sensitivity is drawn as a longer bar extending to the right side.

[9] = tested on: NCI-H460 (human lung large cell carcinoma); test: as above; format: cell-based
Method: as §4, §5, §6, §7

[10] = tested on: SK-OV-3 (human ovarian carcinoma); test: as above; format: cell-based
Method: as §4, §5, §6, §7

[11] = tested on: A549 (human lung adenocarcinoma); test: as above; format: cell-based
Method: as §4, §5, §6, §7

[12] = tested on: A172 cell line derived from human glioblastoma cells; test: Antiproliferative activity test (Alamar Blue, 72 hours); format: cell-based; conditions: read-out: IC50 (50% growth inhibition)
Description: as §1

[13] = concentration inducing 50% cell death, read-out: LC50 (the source's name)
[14] = concentration inducing 50% growth inhibition, two days culture

For CCCCC=C/C=C/C1OC(=O)CC2C[C@H](O)C[C@H](CC3CCC[C@H](C[C@@H](C)/C=C/[C@@H]1C)O3)O2 (stereo partly shown) [analog 4], the cell growth-inhibiting effect [1] was “remarkable cell growth-inhibiting effects” and the “induction of cell death” value [1] was “active induction of cell death was observed”.
For COC(=O)C/C(C)=C/C=C\C=C\C1OC(=O)CC2CC(=O)C[C@H](CC3CCC[C@H](C[C@@H](C)/C=C/[C@@H]1C)O3)O2 (stereo partly shown) [analog 7], the cell growth-inhibiting effect [1] was “remarkable cell growth-inhibiting effects” and the “induction of cell death” value [1] was “active induction of cell death was observed”.
In the case of COC(=O)C/C(C)=C/C=C\C=C\C1OC(=O)CC2C[C@H](O)C[C@H](CC3CCC[C@H](C[C@@H](C)/C=C/[C@@H]1C)O3)O2 (stereo partly shown) [analog 1], the cell growth-inhibiting effect [1] is reported as “remarkable cell growth-inhibiting effects” and the “induction of cell death” value [1] is reported as “active induction of cell death was observed”.
For CCC/C=C/C=C/C(=O)O[C@H]1/C(=C/C(=O)OC)C[C@H]2C[C@H]([C@@H](C)O)OC(=O)C[C@H](O)C[C@@H]3C[C@H](OC(C)=O)C(C)(C)[C@](O)(C[C@@H]4C/C(=C/C(=O)OC)C[C@H](/C=C/C(C)(C)[C@]1(O)O2)O4)O3 [bryostatin 1], the “antiproliferative activity (log value compared with Log GI50)” value (SK-OV-3 cell line) is listed as −5.3, the “antiproliferative activity (log value compared with Log GI50)” value (NCI-H460 cell line) is listed as −5.6 and the “antiproliferative activity (log value compared with Log GI50)” value (A549 cell line) is listed as −5.4.
With COC(=O)/C=C1\C[C@H]2CC(=O)O[C@@H](/C=C/C=C\C=C(/C)CC(=O)OC)[C@@H](C)/C=C/[C@H](C)C[C@H]3CCC[C@@H](C[C@@H](C1)O2)O3 [exiguolide, (−)exiguolide] the IC50 [2] was 590 nM, the IC50 [3] was 280 nM and the “ratio of cells at G1 phase in cell cycle” value (H460 cell line) was “consistently increased the ratio of the G1 phase in cell cycle”. For the same compound, the “relative tumor weight ratio (administration group/control group) at the end of the experiment” value ([4]; second of two ratios) was 0.33, the “relative tumor weight of administration group at the end of the experiment” value ([4]; second of two values) was 1.17 and the “relative tumor weight of administration group at the end of the experiment” value [5] was 3.35. The “relative tumor weight ratio (administration group/control group) at the end of the experiment” value [5] was 0.17, the “phosphorylation of G1-regulating protein Rb” value [6] was “decreased with an increase in concentration of exiguolide” and the “activity of inhibiting maturation of ova and spermatozoa” value [7] was “activity of inhibiting maturation of ova and spermatozoa”. For the same compound, the CC50 [8, 13] was greater than 100000 nM, the GI50 [8, 14] was 690 nM and the “Log GI50” value [8, 14] was −6.16. The LC50 ([9]; concentration inducing 50% cell death) was greater than 100000 nM, the GI50 [9, 14] was 10 nM and the “Log GI50” value [9, 14] was −8.00. The CC50 [10, 13] was greater than 100000 nM, the GI50 [10, 14] was 700 nM and the “Log GI50” value [10, 14] was −6.15. The CC50 [11, 13] was greater than 100000 nM, the GI50 [11, 14] was 650 nM and the “Log GI50” value [11, 14] was −6.19. The IC50 [12] was 460 nM.
